Laboratory results: patent publication US20240366728A1, “Treatment of Diabetes Mellitus” (Carmot Therapeutics Inc., priority 2023, published 2024)

Experiments:
human GIPR = target: T1, human GIPR (Homo sapiens, UniProt P48546); experiment: β-arrestin-2 recruitment (NanoBiT), human GIPR; assay type: cell-based; settings: Table 17
T1 sequence (P48546 22-466): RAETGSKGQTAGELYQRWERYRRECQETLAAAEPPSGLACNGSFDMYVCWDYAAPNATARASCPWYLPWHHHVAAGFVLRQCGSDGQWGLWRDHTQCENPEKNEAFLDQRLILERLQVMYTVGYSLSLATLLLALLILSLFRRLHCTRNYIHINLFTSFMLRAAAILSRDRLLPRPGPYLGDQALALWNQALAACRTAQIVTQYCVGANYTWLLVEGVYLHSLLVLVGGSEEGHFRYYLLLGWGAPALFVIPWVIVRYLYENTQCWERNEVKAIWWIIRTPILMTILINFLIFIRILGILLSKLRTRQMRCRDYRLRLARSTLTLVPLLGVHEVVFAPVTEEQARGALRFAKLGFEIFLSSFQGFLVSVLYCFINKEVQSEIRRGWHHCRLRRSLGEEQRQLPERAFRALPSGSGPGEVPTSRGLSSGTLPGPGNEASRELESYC
Description: To measure GLP-1R and GIPR-mediated β-arrestin recruitment, we utilized Promega's NanoBiT® technology or NanoLuc® Binary Technology. The NanoLuc luciferase is split into two subunits, called LgBiT and SmBIT, which are expressed in HEK293 cells as fusion proteins at the C-terminus of GLP-IR or GIPR and the N-terminus of β-arrestin-2. […] The next day, the media was removed and replaced with […] 1:100 dilution of Nano-Glo® Live Cell Substrate in Opti-MEM™ and equilibrated to room temperature for ten minutes. Background luminescence was measured before 10 nL compound was added using an ECHO Acoustic Liquid Handler.
To measure GLP-1R and GIPR-mediated β-arrestin recruitment, Promega's NanoBiT® technology or NanoLuc® Binary Technology were utilized. Both allow for the detection and quantification of protein: protein interactions in live cells (Samms et al., Trends Endocrinol Metab 31:410-21). The NanoLuc luciferase is split into two subunits, called LgBiT and SmBIT, which are expressed in HEK293 cells as fusion proteins at the C-terminus of GLP-1R or GIPR and the N-terminus of β-arrestin-2, respectively. […] Background luminescence was measured before 10 nL compound was added using an ECHO Acoustic Liquid Handler. Luminescence was measured at 1.5-minute intervals for 30 minutes.

clinical = experiment: clinical; design: species or system human; settings: in vivo
Description: Blood samples, pre- and post-dose, were collected during the in-house treatment periods for the assessment of PD and PK endpoints. […] In addition, fasting plasma glucose (FPG), insulin, C-peptide, GCG and HOMA-IR after ≥10 hours overnight fast and VAS assessments were done on Days 1, 2 and 3.
In participants with T2DM, blood samples were collected on Days 2, 3 and 4 for assessing PK profiles and for PD profiles, on Days 2 and 3. Fasting plasma glucose (FPG), insulin, C-peptide, GCG and HOMA-IR after ≥10 hours overnight fast on Days 1, 2, 3 and 4. A mixed meal tolerance test (MMTT) and prospective meal consumption (ad libitum meal) was administered on Day 4. Appetite and food intake were assessed using a VAS questionnaire (appetite, hunger and satiety) on Days 1, 2, 3 and 4.

[1] = system: lean participants and participants with overweight/obesity; experiment: Phase 1 first-in-human SAD/MAD study: safety and tolerability; assay type: in vivo; settings: for safety and tolerability (in words): no up-titration
Description: This was a randomized, double-blind, placebo-controlled, dose escalation first-in-human (FIH) conducted from December 2018 to January 2020 at a study center in Victoria, Australia in accordance with principles of the Declaration of Helsinki (Ethical Principles for Medical Research Involving Human Subjects), and the NHMRC National Statement on Ethical Conduct in Human Research 2007 (updated 2018). (Registered on the Australian New Zealand Clinical Trials Registry [ANZCTR] under the identifier: ACTRN12618001988246).
Daily doses were given on Day 2 to Day 14. Cohort M1 was dosed with the highest dose level, determined based on the safety and PK data from the preceding Part 1 (SAD), and doses were decreased sequentially for Cohorts M2 and M3 (FIG. 46B).
Following study drug administration, Part 1 (SAD) participants underwent safety and other assessments on Day 3 and Day 8 (±1 day, outpatient) and were followed for at least 30 days after the last administered dose of study drug. Part 2 (MAD) participants underwent safety and other assessments and discharged in the absence of clinically significant safety signals, following completion of all Day 16 assessments. All participants were followed for at least 30 days after the last administered dose of study drug. Participants were follow-up for safety and other assessments on Day 21 (±2 days, outpatient) and Day 44 (±3 days, teleconference).
The primary endpoints were the incidence, nature and severity of AEs, safety laboratory analytes, vital signs, electrocardiograms (ECGs), and incidence of events of special interest (AESI).
Adverse events were coded using the Medical Dictionary for Regulatory Activities (MedDRAR Version 21.1). The number of participants experiencing treatment-emergent AEs (TEAEs) and number of individual TEAEs are summarized by treatment, SOC, and PT. TEAEs are also summarized by severity and by relationship to study drug. AESIs are listed and summarized by treatment group. Listings of AEs leading to discontinuation of the study, SAEs and deaths, are provided as applicable.

[2] = system: lean C57BL/6J, GLP-1R+/+ and GLP-1R-/- mice; experiment: single intracerebroventricular injection: food consumption and body weight; settings: for food consumption and body weight (in words) / body weight decreased / body weight decreased compared to liraglutide / food consumption lowered compared to liraglutide / food consumption lowered compared to vehicle: ICV 0.025 nmol; for body weight decreased / body weight decreased compared to liraglutide / food consumption lowered compared to liraglutide / food consumption lowered compared to vehicle: lean C57BL/6J

CCCCCCCCCCCCCCCC(=O)N[C@@H](CCC(=O)NCCCC[C@H](NC(=O)[C@H](CO)NC(=O)[C@@H]1CCCN1C(=O)[C@@H]1CCCN1C(=O)[C@@H]1CCCN1C(=O)[C@H](C)NC(=O)CNC(=O)[C@H](CO)NC(=O)[C@H](CO)NC(=O)[C@@H]1CCCN1C(=O)CNC(=O)CNC(=O)[C@H](C)NC(=O)[C@H](CC(C)C)NC(=O)[C@H](CC(C)C)NC(=O)[C@H](Cc1c[nH]c2ccccc12)NC(=O)[C@H](CC(N)=O)NC(=O)[C@@H](NC(=O)[C@H](Cc1ccccc1)NC(=O)[C@H](CCC(=O)O)NC(=O)C(C)(C)NC(=O)[C@H](C)NC(=O)[C@H](C)NC(=O)[C@H](CCC(N)=O)NC(=O)[C@H](CCCCN)NC(=O)[C@H](CC(=O)O)NC(=O)[C@H](CC(C)C)NC(=O)[C@H](Cc1ccc(O)cc1)NC(=O)[C@@H](NC(=O)[C@H](CO)NC(=O)[C@H](Cc1ccc(O)cc1)NC(=O)[C@H](CC(=O)O)NC(=O)[C@H](CO)NC(=O)[C@@H](NC(=O)[C@H](Cc1ccccc1)NC(=O)[C@@H](NC(=O)CNC(=O)[C@H](CCC(=O)O)NC(=O)CSCC(=O)NCCN1CCCCC1=O)[C@@H](C)O)[C@@H](C)O)[C@@H](C)CC)C(C)C)C(N)=O)C(=O)O [CT-868]
EC50 (human GIPR; read-out: hGIPR β-arrestin-2 EC50): 13 nM | Emax (human GIPR; read-out: hGIPR β-arrestin-2 % Emax): 1% | incremental AUC (clinical; human): 128,267 ng/ml*min | terminal half-life (t1/2) (clinical; human): 1,190 minutes | AUC (clinical; human, AUC): 3490 ng·h/mL | AUC (clinical; human, AUC (0-tau)): 3860 ng·h/mL | Cmax (clinical; human, Cmax): 247 ng/mL | Cmax (clinical; human, Maximum Concentration of CT-868 (Cmax)): 274 ng/mL | Tmax (clinical; human, Time of Maximum Concentration of CT-868 (Tmax)): 10.9 h | Tmax (clinical; human, Tmax): 12.2 h | AUC (clinical; human, incremental AUC): 2260 ng·h/mL | half-life (clinical; human, terminal half-life): ~20 h | half-life (clinical; human, terminal half-life (t1/2)): 19.8 h | time at which maximum plasma concentrations were attained post-dose (clinical): 11 to 12 h | participants reporting only nausea ([1]; MAD 0.75 mg): 2/6 | participants with abdominal pain ([1]; MAD 1.5 mg): 1/6 | participants with constipation ([1]; MAD 1.5 mg): 4/6 | participants with diarrhea ([1]; MAD 1.5 mg): 1/6 | participants with gastrointestinal symptoms ([1]; MAD 1.5 mg): 4/6 | participants with nausea ([1]; MAD 1.5 mg): 2/6 | participants with vomiting ([1]; MAD 1.5 mg): 2/6 | mild to moderate gastrointestinal symptoms (in words) ([1]; MAD 5.0 mg): reported by all six participants | drug withdrawal due to drug-related TEAEs (in words) ([1]; MAD 5.0 mg, mild nausea and vomiting): One participant | maximum tolerated single dose ([1]; SAD): 7.5 mg | participants with drug-related TEAEs ([1]; SAD 7.5 mg, two events of nausea and one of diarrhea): 50% | participants with gastrointestinal TEAEs ([1]; SAD 11.0 mg, twelve events, all drug-related): 100% | SAEs and drug-induced hypoglycemia (in words) ([1]; SAD and MAD phases): no serious adverse events (SAEs) or drug-induced hypoglycemia events | safety and tolerability (in words) ([1]; single doses up to 7.5 mg, up to 1.5 mg/day for 14 days): generally safe and well tolerated | safety and tolerability (in words) ([1]; up to 11 mg single dose, up to 5 mg/day for 14 days): safe and well tolerated

CCCCCCCCCCCCCCCC(=O)N[C@@H](CCC(=O)NCCCC[C@H](NC(=O)[C@H](CO)NC(=O)[C@@H]1CCCN1C(=O)[C@@H]1CCCN1C(=O)[C@@H]1CCCN1C(=O)[C@H](C)NC(=O)CNC(=O)[C@H](CO)NC(=O)[C@H](CO)NC(=O)[C@@H]1CCCN1C(=O)CNC(=O)CNC(=O)[C@H](C)NC(=O)[C@H](CC(C)C)NC(=O)[C@H](CC(C)C)NC(=O)[C@H](Cc1c[nH]c2ccccc12)NC(=O)[C@H](CC(N)=O)NC(=O)[C@@H](NC(=O)[C@H](Cc1ccccc1)NC(=O)[C@H](CCC(=O)O)NC(=O)C(C)(C)NC(=O)[C@H](C)NC(=O)[C@H](C)NC(=O)[C@H](CCC(N)=O)NC(=O)[C@H](CCCCN)NC(=O)[C@H](CC(=O)O)NC(=O)[C@H](CC(C)C)NC(=O)[C@H](Cc1ccc(O)cc1)NC(=O)[C@@H](NC(=O)[C@H](CO)NC(=O)[C@H](Cc1ccc(O)cc1)NC(=O)[C@H](CC(=O)O)NC(=O)[C@H](CO)NC(=O)[C@@H](NC(=O)[C@H](Cc1ccccc1)NC(=O)[C@@H](NC(=O)CNC(=O)[C@H](CCC(=O)O)NC(=O)CSCC(=O)NCCN1C(=O)CSC1=O)[C@@H](C)O)[C@@H](C)O)[C@@H](C)CC)C(C)C)C(N)=O)C(=O)O [CT-859]
food consumption and body weight vs liraglutide after ICV (in words) [2]: decreased food consumption and body weight more than liraglutide | food consumption and body weight (in words) ([2]; GLP-1R+/+ mice): suppressed food consumption and reduced body weight | food consumption and body weight (in words) ([2]; GLP-1R-/- mice): no effect | food consumption, body weight, blood glucose after ICV (in words) ([2]; GLP-1R-KO mice, 0.025 and 1 nmol/kg): did not have any significant effects on food consumption, body weight, or blood glucose | food consumption, body weight after ICV (in words) ([2]; GLP-1R-WT mice, 0.025 and 1 nmol/kg, up to 72 h): dose dependent reduction of cumulative food consumption | body weight decreased ([2]; 24 hours): 9% | body weight decreased compared to liraglutide ([2]; 24 hours): 5% | food consumption lowered compared to liraglutide ([2]; 24 hours): 45% | food consumption lowered compared to vehicle ([2]; 24 hours): 63% | body weight decreased ([2]; 48 hours): 5% | body weight decreased compared to liraglutide ([2]; 48 hours): 5% | food consumption lowered compared to liraglutide ([2]; 48 hours): 27% | food consumption lowered compared to vehicle ([2]; 48 hours): 38% | food intake and body weight vs equal dose of liraglutide (in words) ([2]; wildtype mice, ICV […], up to 19 h): significantly greater reduction of food intake and body weight
